# Values quoted from earlier work, collected in patent US20030040489A1, “Process for producing l-arabinose, l-arabinose-containing enzymatically processed products, diet foods, diabetic diet foods and fruit or vegetable juices and process for producting the same” (priority 1999, published 2003).
# Tested on: disaccharide-decomposing enzymes (maltase, sucrase, etc.)
# Settings: enzymes of duodenal and small intestinal mucosae
smiles,measurement,value
O=C[C@H](O)[C@@H](O)[C@@H](O)CO [L-arabinose],mode of inhibition of disaccharide-decomposing enzymes,uncompetitively inhibits
